Paper PMC8224742, “Evaluation of 1β-Hydroxylation of Deoxycholic Acid as a Non-Invasive Urinary Biomarker of CYP3A Activity in the Assessment of Inhibition-Based Drug–Drug Interaction in Healthy Volunteers” (Journal of Personalized Medicine, 2021)

Legend:
[1] = Oral MDZ (1.5 mg p.o.) plasma pharmacokinetics (MDZ and 1′-OH-MDZ) alone and after repeated inhibitor administration; details: human, in vivo, po, 1.5 mg; for AUC: MDZ AUC0– (zero to infinity); for AUC / AUC(0-t) / Cmax / Tmax: MDZ alone; for AUC / AUC(0-t) / Cmax / half-life / Tmax: MDZ 1.5 mg p.o., geometric mean (90% CI); for AUC(0-t): MDZ AUClast; for Cmax: MDZ Cmax; for half-life: MDZ T1/2, MDZ alone; for Tmax: MDZ Tmax; for AUC(0-inf): Oral MDZ AUC0-inf, Baseline, MDZ 1.5 mg p.o. before inhibitor, geometric mean (range)
Experimental: (§1) ITZ tablets (200 mg) were split equally in two, and 100 mg were given to subjects.
(§2) MDZ acted as a nested control in the evaluation of the endogenous urinary markers, and it was administered both orally (1.5 mg) and intravenously (i.v.; 1.0 mg). Participants were all treated the same way for the baseline and randomly split into 3 arms of 8–10 individuals each to evaluate the effect of the inhibitors. […] MDZ pharmacokinetic (PK) profiling and biomarker sampling was also conducted after the washout period and at the end of the study to determine whether enzyme activity returned to baseline levels. The subjects were their control. Treatment, washout and end of study values were compared with values at baseline.
(§3) Plasma concentrations of MDZ and its metabolite 1′-OH-MDZ were analysed using a validated LC-MS/MS method. Plasma samples were extracted using protein precipitation, where 300 µL of acetonitrile (ACN) containing 500 ng/mL diazepam as an internal standard (IS) was added to 100 µL of plasma. The mixture was then vortexed for 10 min, followed by centrifugation at 10,000× g for 5 min at a temperature of 4 °C. The supernatant was collected, and 5 µL were injected into the LC-MS/MS for analysis.
(§4) The mobile phase consisted of 10 mM ammonium formate in 5% methanol (MeOH) (A) and ACN (B). […] The column temperature was maintained at 40 °C. MDZ and 1′-OH-MDZ were detected on a Sciex 3200 mass spectrometer with a turbo ion spray interphase operated in positive ion mode at 5500 V, a temperature of 5000 °C; GS1 and GS2 at 50 and 60 psi, respectively; and a curtain gas flow of 25 psi. […] The quantification of the MDZ and 1′-OH-MDZ was performed using the Analyst software (version 1.2; Applied Biosystems).
(§5) Standard non-compartmental pharmacokinetic (PK) analysis was performed with the WinNolin program, version 4.1 (Pharsight Corp, Mountain View, CA, USA), using the linear up logarithmic down trapezoidal method. The plasma parameters that were assessed and used for the comparison with the urinary biomarker were MDZ clearance (MDZ CL) and the area under the plasma concentration-time curve (AUC) from zero to infinity (AUC0–inf) of MDZ. More PK parameters were evaluated for MDZ and 1′-OH-MDZ.
(§6) The difference between log-transformed treatment/baseline was calculated pairwise for each subject, as well as for their 90% confidence intervals (CIs). These differences and CIs were anti-log-transformed back for reporting purposes. The same analysis was performed for MDZ clearance and AUC0-inf before and after treatment for comparison.
(§7) The pharmacokinetic (PK) parameters of MDZ were performed by standard noncompartmental
(§8) methods using the WinNolin program, version 4.1 (Pharsight Corp, Mountain View, CA, USA).
(§9) were plotted as graphs of midazolam or 1-OH-midazolam concentration vs. time.

CYP3A [2] = test: as above; details: for MDZ CL, MDZ alone: MDZ 1.5 mg p.o., geometric mean (90% CI)
Experimental: as §1, §2, §3, §4, §5, §6, §7, §8, §9

[3] = Intravenous MDZ (1.0 mg i.v.) plasma pharmacokinetics (MDZ and 1′-OH-MDZ) alone and after repeated inhibitor administration; details: human, in vivo, iv, 1 mg; for AUC: MDZ AUC0– (zero to infinity); for AUC(0-t): MDZ AUClast; for Cmax: MDZ Cmax; for half-life: MDZ T1/2, MDZ alone; for Tmax: MDZ Tmax; for AUC(0-inf): i.v. MDZ AUC0-inf
Experimental: as §1, §2, §3, §4, §5, §6, §7, §8, §9

CYP3A [4] = test: as above; details: human, in vivo, iv, 1 mg, Baseline, ITZ arm, MDZ 1.0 mg i.v. before inhibitor, geometric mean (range)
Experimental: as §1, §2, §3, §4, §5, §6, §7, §8, §9

[5] = MDZ alone, MDZ 1 mg i.v., APZ arm (Table S1), geometric mean (90% CI)
[6] = MDZ alone, MDZ 1 mg i.v., FKZ arm (Table S2), geometric mean (90% CI)
[7] = MDZ alone, MDZ 1 mg i.v., ITZ arm (Table S3), geometric mean (90% CI)

Compound Cc1ncc2n1-c1ccc(Cl)cc1C(c1ccccc1F)=NC2 [MDZ, midazolam] has an AUC ([1]; APZ arm (Table S1)) of 10.6 ng·h/mL, an AUC ([1]; FKZ arm (Table S2)) of 19.4 ng·h/mL and an AUC ([1]; ITZ arm (Table S3)) of 9.64 ng·h/mL. It also gave an AUC(0-t) ([1]; APZ arm (Table S1)) of 10.4 ng·h/mL, an AUC(0-t) ([1]; FKZ arm (Table S2)) of 18.5 ng·h/mL and an AUC(0-t) ([1]; ITZ arm (Table S3)) of 8.61 ng·h/mL. For the same compound, the Cmax ([1]; APZ arm (Table S1)) was 4.13 ng/mL, the Cmax ([1]; FKZ arm (Table S2)) was 6.18 ng/mL and the Cmax ([1]; ITZ arm (Table S3)) was 4.86 ng/mL. It also gave a half-life ([1]; APZ arm (Table S1)) of 1.63 h, a half-life ([1]; FKZ arm (Table S2)) of 2.26 h and a half-life ([1]; ITZ arm (Table S3)) of 1.43 h. For the same compound, the Tmax ([1]; APZ arm (Table S1)) was 0.76 h, the Tmax ([1]; FKZ arm (Table S2)) was 0.79 h and the Tmax ([1]; ITZ arm (Table S3)) was 0.63 h. For the same compound, the AUC(0-inf) ([1]; APZ arm) was 10.6 ng·h/mL, the AUC(0-inf) ([1]; FKZ arm) was 22.7 ng·h/mL and the “Oral MDZ CL, Baseline” value (CYP3A [2]; APZ arm, MDZ 1.5 mg p.o. before inhibitor, geometric mean (range)) was 59.1 (28.0–220.5) L/h. The “Oral MDZ CL, Baseline” value (CYP3A [2]; FKZ arm, MDZ 1.5 mg p.o. before inhibitor, geometric mean (range)) was 59.8 (17.0–135.9) L/h, the “Oral MDZ CL, Baseline” value (CYP3A [2]; ITZ arm, MDZ 1.5 mg p.o. before inhibitor, geometric mean (range)) was 126 (46.7–648.8) L/h and the “MDZ CL, MDZ alone” value (CYP3A [2]; APZ arm (Table S1)) was 137.34 (101–186) L/h. For the same compound, the “MDZ CL, MDZ alone” value (CYP3A [2]; FKZ arm (Table S2)) was 77.41 (56.44 – 106.19) L/h, the “MDZ CL, MDZ alone” value (CYP3A [2]; ITZ arm (Table S3)) was 155.58 L/h and the AUC(0-inf) (CYP3A [2]; human, in vivo, po, 1.5 mg, Oral MDZ AUC0-inf, Baseline, ITZ arm, MDZ 1.5 mg p.o. before inhibitor, geometric mean (range)) was 10.8 ng·h/mL. For the same compound, the AUC [3, 5] was 16.8 ng·h/mL, the AUC [3, 6] was 12.4 ng·h/mL and the AUC [3, 7] was 13.5 ng·h/mL. For the same compound, the AUC(0-t) [3, 5] was 16.6 ng·h/mL, the AUC(0-t) [3, 6] was 12 ng·h/mL and the AUC(0-t) [3, 7] was 12.9 ng·h/mL. The clearance ([3]; MDZ CL, MDZ alone, MDZ 1 mg i.v., APZ arm (Table S1), geometric mean (90% CI)) was 998 mL/min, the clearance ([3]; MDZ CL, MDZ alone, MDZ 1 mg i.v., FKZ arm (Table S2), geometric mean (90% CI)) was 1350 mL/min and the clearance ([3]; MDZ CL, MDZ alone, MDZ 1 mg i.v., ITZ arm (Table S3), geometric mean (90% CI)) was 1230 mL/min. It also gave a Cmax [3, 5] of 26 ng/mL, a Cmax [3, 6] of 22.6 ng/mL and a Cmax [3, 7] of 25 ng/mL. For the same compound, the half-life ([3]; MDZ 1 mg i.v., APZ arm (Table S1), geometric mean (90% CI)) was 2.06 h, the half-life ([3]; MDZ 1 mg i.v., FKZ arm (Table S2), geometric mean (90% CI)) was 1.55 h and the half-life ([3]; MDZ 1 mg i.v., ITZ arm (Table S3), geometric mean (90% CI)) was 2.32 h. The Tmax [3, 5] was 0.29 h, the Tmax [3, 7] was 0.28 h and the AUC(0-inf) ([3]; Baseline, APZ arm, MDZ 1.0 mg i.v. before inhibitor, geometric mean (range)) was 16.8 ng·h/mL. The AUC(0-inf) ([3]; Baseline, FKZ arm, MDZ 1.0 mg i.v. before inhibitor, geometric mean (range)) was 12.4 ng·h/mL, the clearance ([3]; i.v. MDZ CL, Baseline, APZ arm, MDZ 1.0 mg i.v. before inhibitor, geometric mean (range)) was 993 mL/min and the clearance ([3]; i.v. MDZ CL, Baseline, FKZ arm, MDZ 1.0 mg i.v. before inhibitor, geometric mean (range)) was 1350 mL/min. The AUC(0-inf) (CYP3A [4]; i.v. MDZ AUC0-inf) was 12.1 ng·h/mL and the clearance (CYP3A [4]; i.v. MDZ CL) was 1380 mL/min.
